Consider eight molecules from PubChem BioAssay (NCI).

“And” between values parts separate entries of the source, which are not always exact repeats. Identical values can stand only once.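 All cell lines were grown in 96-well plates and treated with compound for 48 hours. Here, GI50 denotes the concentration required for 50% inhibition of growth. TGI marks complete inhibition of growth.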 A value given as a limit tells only on which side of the number the result lay.

Test in all cases: NCI-60 cell line screen, 48 h
Test [1] concerns HT29 colon.
The subject of test [2] is SR leukemia.
The subject of test [3] is NCI-H23 lung.
For test [4], the system named is SF-295 CNS.
The test system of test [5] is SNB-19 CNS.
The test system of test [6] is 786-0 renal.
Test [7] relates to HOP-92 NSCLC.
Test [8] has as its system SK-MEL-2 melanoma.
Test [9] concerns OVCAR-3 ovarian.
The subject of test [10] is K-562 leukemia.

Turning to `COC1=CC(c2ccc[nH]2)=N/C1=C\c1[nH]c(C)c(C(=O)OCc2ccccc2)c1C`, the GI50 in test [1] is 0.0359 µM; in test [2], 0.0405 µM; in test [3] it was 0.141 µM; in test [4] it was 0.17 µM; in test [5], 606 nM; in [6], 0.0666 µM. The GI50 in [7] was 0.0671 µM; in test [8], 0.0445 µM; in test [9], 0.0621 µM; in test [10], 0.0855 µM. The TGI came to 1.27 µM in [1]; 0.885 µM in [2]; 1.74 µM in test [3]; 0.827 µM in [4]; 29.2 µM in test [5]; 1.08 µM in test [6]. The TGI in test [7] came out at 0.431 µM; in test [8], 0.196 µM; in test [9], 0.645 µM; in test [10], 1.46 µM.
On to `C=C1C(=O)O[C@H]2[C@H]1CC/C(CNC(=O)/C=C/c1ccc(Br)cc1)=C\CC[C@@]1(C)O[C@@H]21`, for which the GI50 in [1] was 0.622 µM; in test [2], 0.255 µM; in test [3], 1.41 µM; in test [4], 2.16 µM; in [5] it was 1610 nM; in test [6] it was 1.05 µM. Also, the GI50 in [7] was 0.659 µM; in [8] it was 1.4 µM; in test [9], 0.511 µM; in test [10], 0.438 µM. For the same molecule, the TGI turned out to be 2.66 µM in [1]; 3.05 µM in [3]; 5.81 µM in [4]; 4.6 µM in test [5]; 2.45 µM in test [6]; 2.26 µM in test [7]. For the same molecule, the TGI in test [8] is 3.02 µM; in test [9], 1.74 µM; in test [10] it was > 33.4 µM.
For `O=C1OC(=O)c2c1c(-c1ccccc1)cn2-c1ccc(Cl)cc1`, the TGI in test [1], in [2], in test [3], in test [4], in test [5] and in test [6] was > 100 µM throughout. The TGI in test [7], in [8], in [9] and in [10] was > 100 µM each time.
With `CN(C)CCCOc1ccccc1NC1=C(Cl)C(=O)C(Nc2ccccc2OCCCN(C)C)=C(Cl)C1=O`, the GI50 in test [1] is 0.253 µM; in [2] it was 0.837 µM; in test [3], 0.57 µM; in test [4] it was 1.53 µM; in test [5] it was 1570 nM; in test [6], 0.661 µM. For the same molecule, the GI50 in [7] is 1.33 µM; in [8], 1.83 µM; in [9], 0.172 µM; in test [10], 0.274 µM. The TGI stood at 0.584 µM in test [1]; 5.47 µM in test [2]; 1.38 µM in test [3]; 2.9 µM in test [4]; 3.02 µM in test [5]; 1.91 µM in test [6]. Besides, the TGI in test [7] came to 2.82 µM; in test [8], 3.58 µM; in test [9], 0.319 µM; in test [10], 0.793 µM.
Regarding `Cc1nc2sccn2c1/C=C1/C(=O)Nc2ccccc21`, the GI50 in [1] was 2.81 µM; in test [2], 1.26 µM; in test [3] it was > 30.3 µM; in test [4] it was 3.01 µM; in test [5], > 44000 nM; in [6], 15.1 µM. Also, the GI50 in [7] is 17.9 µM; in test [8] it was 5.73 µM; in test [9] it was 2.36 µM; in [10], > 100 µM. Further, the TGI in test [1] was > 100 µM; in [2] it was 5.44 µM; in [3], > 100 µM; in [4], > 26.5 µM; in [5], > 100 µM; in test [6], > 100 µM. Further, the TGI in [7] was > 100 µM; in [8] it was > 100 µM; in [9] it was > 22.8 µM; in test [10], > 100 µM.
`O=C(O)c1ccccc1Cc1ccco1`: the TGI in test [1], in test [2], in test [3], in test [4], in test [5] and in test [6] was > 100 µM each time. The TGI in test [7], in test [8], in test [9] and in test [10] was > 100 µM throughout.
Take `Nc1ccn(C2OC(CO)C(O)C2F)c(=O)n1` (centres undefined): the GI50 is > 5000 µM in test [1]; 412 µM and 2500 µM in test [2]; > 5000 µM in test [3]; > 5000 µM in [4]; 19500 nM in [5]; > 5000 µM in test [6]. The GI50 in test [7], in test [8], in test [9] and in test [10] was > 5000 µM throughout. In addition, the TGI in [1], in test [2], in [3], in test [4], in test [5] and in test [6] was > 5000 µM throughout. Besides, the TGI in test [7], in test [8], in [9] and in test [10] was > 5000 µM each time.
Regarding `C(=Nc1ccccc1)C1CCCC[N-]1.C(=Nc1ccccc1)C1CCCC[N-]1.[Cu+2].[O-][Cl+3]([O-])([O-])O` (centres undefined), the GI50 in test [1] was 15.5 µM; in [2], 1.64 µM; in test [3], 15.1 µM; in test [4], 3.13 µM; in test [5], 9940 nM; in test [6], 13.3 µM. Moreover, the GI50 in test [7] was 23 µM; in test [8], 15.8 µM; in test [9] it was 13 µM; in [10] it was 0.745 µM. Besides, the TGI in test [1] was 30.8 µM; in [2], 6.12 µM; in test [3], 33.2 µM; in test [4], 18.8 µM; in test [5], 38.4 µM; in test [6], > 58.7 µM. The TGI in test [7] is > 73.9 µM; in test [8] it was 40.9 µM; in test [9], 20.4 µM; in [10], 14.4 µM.
